The values below come from article PMC3034772 (Pharmaceutical research, 2010).

The nature of series [1]: In combo PAMPA-BBB model, calculated log Po in situ. As to conditions: no efflux inhibition.
A short description of series [2]: Charge class Q, dominant calculated charge state at pH 7.4. In kind it is physicochemical.
The conditions of series [3]: PAMPA; for Pm^7.4: pH 7.4. For orientation: The PAMPA barrier holds no transporters, so it reflects passive diffusion.
The conditions of series [4]: mouse, in vivo; cited from earlier work.
The conditions of series [5]: in vivo; cited from earlier work.
[6] abbreviates: dominant calculated concentration fraction of the drug in a charge state.
Where [7] appears, read: difference observed minus calculated, external set.

Read-outs that look alike come from different tables or passages of the source.

What is called pKa is the pH at which an ionisable group is half protonated. Lower therefore signals a stronger acid or weaker base. With `CNCC[C@@H](Oc1ccccc1C)c1ccccc1` [Atomoxetine], the “obs–calc (log Po^in situ)” value in series [1] is 0.5. In addition, the “Q (charge class)” value in series [2] (setting [6]) is recorded as “+”. In the series “physchem”, this compound showed a pKa of 9.67. Moreover, in series [3], the “log PABL” value is recorded as −3.01, the “log Po” value is −1.83 and the “log Ppara” value is listed as −6.10.

For `O=c1[nH]c2ccccc2n1CCCN1CCC(n2c(=O)[nH]c3cc(Cl)ccc32)CC1` [Domperidone], the “Q (charge class)” value in series [2] (setting [6]) was “+”. Further, the PS is listed as 16 10^−4 mLg^−1s^−1 in series [4] and 5 10^−4 mLg^−1s^−1 in series [5]. The same compound yielded a pKa in “physchem” of 9.38. The “log PS” value in series [5] was −3.29.

Regarding `CCC1(C)CC(=O)NC1=O` (stereo not shown) [Ethosuximide], the “obs–calc (log Po^in situ)” value in series [1] was 0.2. For the same compound, the “Q (charge class)” value in series [2] (setting [6]) is 0. For the same compound, the pKa in the series “physchem” was determined as 9.18. Also, in series [3], the “log Po” value is −5.83, the “log Ppara” value was −6.87 and the “Pm^7.4” value worked out at 1.5.

For the compound `OCCN1CCN(CCCN2c3ccccc3Sc3ccc(C(F)(F)F)cc32)CC1` [Fluphenazine], the “obs–calc (log Po^in situ)” value in series [1] is given as −1.0. In addition, the “Q (charge class)” value in series [2] (setting [6]) is on record as “+”. The compound also gave a pKa in the series “physchem” of 7.76. Besides, in series [3], the “log PABL” value is −3.24, the “log Po” value was −2.36, the “log Ppara” value is −5.54 and the “Pm^7.4” value is recorded as 1326.

Consider `CN1CCN2c3ncccc3Cc3ccccc3C2C1` (stereo not shown) [Mirtazapine], for which the “obs–calc (log Po^in situ)” value in series [1] is reported as −0.2. Besides, the “Q (charge class)” value in series [2] (setting [6]) was 0. This compound also had a pKa in “physchem” of 7.91. In addition, in series [3], the “log PABL” value is given as −3.37, the “log Po” value was −2.61, the “log Ppara” value is −5.87 and the “Pm^7.4” value amounted to 579.

For `COc1ccc2c3c1O[C@H]1C(=O)CC[C@@]4(O)[C@@H](C2)N(C)CC[C@]314` [Oxycodone], the “Q (charge class)” value in series [2] was “+”. The same compound came in with a pKa in the series “physchem” of 9.

On to `CCCN1C[C@H](CSC)C[C@@H]2c3cccc4[nH]cc(c34)C[C@H]21` [Pergolide], for which the “obs–calc (log Po^in situ)” value in series [1] is 0.4. Also, the “Q (charge class)” value in series [2] (setting [6]) is given as “+”. This compound also returned a pKa in the series “physchem” of 9.45. In series [3], the “log PABL” value is −3.25, the “log Po” value is −1.45, the “log Ppara” value was −6.20 and the “Pm^7.4” value is 315.

Regarding `NNCCc1ccccc1` [Phenelzine], the “obs–calc (log Po^in situ)” value in series [1] (setting [7]) is given as −1.9. In series [2] (setting [6]), the “Q (charge class)” value is reported as “+”. Also, in the series “physchem”, the pKa stood at 7.66. Moreover, in series [3], the “log PABL” value is on record as −4.58, the “log Po” value was −2.20, the “log Ppara” value is given as −6.86 and the “Pm^7.4” value stood at 2236.

For the compound `CN[C@H]1CC[C@@H](c2ccc(Cl)c(Cl)c2)c2ccccc21` [Sertraline], the “Q (charge class)” value in series [2] (setting [6]) is recorded as “+”. The same compound gave a pKa in the series “physchem” of 9.2.

As for `CNS(=O)(=O)Cc1ccc2[nH]cc(CCN(C)C)c2c1` [Sumatriptan], the “obs–calc (log Po^in situ)” value in series [1] (setting [7]) is on record as 0.0. Also, the “Q (charge class)” value in series [2] (setting [6]) is recorded as “+”. The compound also showed a pKa in “physchem” of 9.64. In series [3], the “log PABL” value is recorded as −4.65, the “log Po” value is listed as −4.86, the “log Ppara” value is on record as −7.51 and the “Pm^7.4” value is given as 0.4.

Take `O=c1n(CCCN2CCN(c3cccc(Cl)c3)CC2)nc2ccccn12` [Trazodone]: the “obs–calc (log Po^in situ)” value in series [1] is 0.0. The “Q (charge class)” value in series [2] (setting [6]) is 0. In “physchem”, this compound gave a pKa of 7.46. Moreover, in series [3], the “log PABL” value is listed as −3.90, the “log Po” value is recorded as −2.94, the “log Ppara” value was −5.99 and the “Pm^7.4” value was found to be 534.

In the case of `CN1CCN(CCCN2c3ccccc3Sc3ccc(C(F)(F)F)cc32)CC1` [Trifluoperazine], the “obs–calc (log Po^in situ)” value in series [1] (setting [7]) is recorded as −1.1. For the same compound, the “Q (charge class)” value in series [2] (setting [6]) is reported as “+”. In the series “physchem”, this compound gave a pKa of 8.22. In series [3], the “log PABL” value was −3.32, the “log Po” value was −1.96, the “log Ppara” value is −5.94 and the “Pm^7.4” value worked out at 1442.
